Experimental data published in patent publication US20230151432A1, “KIF18A INHIBITORS FOR TREATMENT OF NEOPLASTIC DISEASES” (AMGEN INC., priority 2020, published 2023).
Entries after “also recorded” stand apart in the source; their conditions may differ.

How the values were obtained:
[1] = system: human bone marrow mononuclear cells (HBMNC); experiment: BrdU cell cycle analysis and live cell count in normal cells; format: cell-based; details: two normal donors; for BrdU incorporation (cell cycle analysis) relative to DMSO/vehicle control: 48 h, C9, C11, palbociclib 1 μM, ispinesib 0.05 μM, paclitaxel; for live cell count relative to vehicle control: 96 hours
Procedure: The effect KIF18A inhibitor treatment has on proliferation of normal somatic cells (e.g., not neoplastic cells) was tested by assaying proliferation of human bone marrow mononuclear cells (HBMNCs), primary human foreskin fibroblast cells (hFSF) and human mammary epithelial cells via a 5-bromo-2′-deoxyuridine (BrdU) incorporation assay in which BrdU, an analog of the nucleoside thymidine, is used to identify proliferating cells (Payton et. al., Molecular Cancer Therapeutics, 17(12):2575-85 (2018)). Cells were analyzed on BD LSRFortessa flow cytometer using BD FACSDiva software (BD Biosciences), and post-acquisition data analysis was performed using FSC-Express software (De Novo). The percentage of BrdU positive gated events on the stacked DNA content histograms were reported.
To further examine the effects of KIF18A inhibitor treatment on HBMNC, two normal donors were assessed using the BrdU coupled cell cycle assay and cell count assay (96 hours) was. […] In particular, the amount of BrdU-stained proliferating cells treated with Ispinesib, paclitaxel, or a CDK 4/6 inhibitor (palbociclib) was far less than the amount of vehicle control-treated BrdU-stained cells. […] KIF18A inhibitor treatment was also analyzed for impact on live cell count. After 96 hours, live cells were counted by Vi-CELL XR Cell Viability Analyzer (Beckman Coulter).
To investigate whether KIF18A inhibitors could circumvent this normal cell toxicity barrier, we examined the effects of Compounds C9 and C11 on a panel of cycling normal somatic cell types. First, we treated human bone marrow mononuclear cells (HBMNC) from two normal donors with DMSO, Compound C9 and C11 at 1 μM, ispinesib at 0.05 μM, paclitaxel at 0.05 μM, or palbociclib at 1 μM for 48 h (cell cycle) or 96 h (cell growth).
BrdU and cell cycle analysis. Human bone marrow mononuclear cells (HBMNCs) from two normal donors (#37612, #37534) were cultured for 8 days in defined media as previously described (Payton et al 2018). HBMNCs were seeded in 24-well plate at 1.2×10^6 cells per well in duplicate plates. Cells were treated with DMSO, Compound C9 (1 μM), Compound C11 (1 μM), ispinesib (0.05 μM), paclitaxel ([…]), or palbociclib (1 μM). Cells were collected at 48 h (cell cycle) and 96 h (cell growth). The first set of plates were pulsed with BrdU for 2 h and processing for BrdU cell cycle analysis as previously described (Payton et al 2018). Cells were analyzed on BD LSRFortessa flow cytometer running BD FACSDiva software and post-acquisition data analysis was performed using FSC-Express software. Data was reported for the percentage of BrdU and subG1 gated populations. The second set of plates were collected, and cells counted using Vi-CELL XR Cell Viability Analyzer (Beckman Coulter).

[2] = system: normal human foreskin fibroblast cells; experiment: Arrayscan VTi multiplex imaging assays; format: cell-based; details: 48 hours, top 10 μM (C11) or 1 μM (C9); for total object count and BrdU incorporation: 9-point range
Procedure: Imaging assays were also carried out to determine the effects of KIF18A inhibitor treatment on normal somatic cells. Arrayscan VTi multiplex imaging assays were carried out with human FSF cells as described below. Briefly, normal human foreskin fibroblast cells were seeded at 6000 cells per well in 96-well imaging plates (Corning) and cultured overnight. The next day, two replicate 96-well plates were treated with DMSO or panel of test agents over a 9-point concentration range using 3-fold dilution with top concentration of 10 μM (KIF18A inhibitor Compound C11, nutlin-3a), 1 μM (KIF18A inhibitor Compound C9, BI-2536, ispinesib, paclitaxel), or 5 μM (palbociclib, GSK923295). After 48 hours of treatment, one plate was pulsed with BrdU (Invitrogen) for 3 hours before fixation. Both 96-well plates fixed with 4% formaldehyde (Thermo Scientific), washed twice with wash buffer [PBS, 1% BSA (Thermo Fisher), 0.2% Triton X-100 (Sigma)]. The first 96-well plate was processed for BrdU epitope detection using acid wash, blocked overnight at 4° C. in wash buffer supplemented with horse serum (4 drops serum per 10 mL) (Vector Labs) and stained with anti-BrdU-AlexaFluor-647 (B35140, Invitrogen, mouse, 3 μg per mL) and anti-p21 (12D1) (2947, Cell Signaling, rabbit, 1:400) antibodies for two hours at room temperature. Cells were washed twice in wash buffer and stained with secondary antibody [anti-rabbit-IgG-AlexaFluor-488 (A1 1034, Invitrogen, 1:2000)] and incubated for one hour at room temperature. The second 96-well plate was blocked overnight at 4° C. in wash buffer supplemented with horse serum (4 drops serum per 10 mL) (Vector Labs) and stained with anti-cl-PARP (214/215) (44-6986, Invitrogen, rabbit, 1:1500) and anti-γH2AX (05-636, Millipore, mouse, 1:1000) antibodies for two hours at room temperature. Cells were washed twice in wash buffer and stained with secondary antibodies [anti-rabbit-IgG-AlexaFluor-647 (A21245, Invitrogen, 1:2000), anti-mouse-IgG-AlexaFluor-488 (A1 1029, Invitrogen, 1:2000)] and incubated for one hour at room temperature. Both 96-well plates were washed twice and counterstained with Hoeschst 33342 (Invitrogen) nuclear dye. Imaging data was collected by widefield imaging on ArrayScan VTi HCS Reader (Thermo Scientific) from 64 fields per well using 20×objective. Valid nuclear object counts were determined for each well as well as the percentage of BrdU, p21, cl-PARP, and γH2AX positive objects for each test agent concentration and DMSO control. Concentration-response heatmaps were generated using GraphPad Prism software (V7.0.4).

| SMILES | BrdU incorporation (cell cycle analysis) relative to DMSO/vehicle control [1] | live cell count relative to vehicle control [1] | total object count and BrdU incorporation [2] | cell cycle arrest measured by the induction of p21 protein expression [2] | induction of DNA damage measured by increase in γHH2X expression [2] | induction of apoptosis measured by cl-PARP expression [2] |
| --- | --- | --- | --- | --- | --- | --- |
| CC(C)(C)NS(=O)(=O)c1cccc(NC(=O)c2ccc(S(=O)(=O)NC(C)(C)C)cc2N2CCC3(CC2)CC3)c1 [Compound C9, 4-(N-(tert-butyl)sulfamoyl)-N-(3-(N-(tert-butyl)sulfamoyl)phenyl)-2-(6-azaspiro[2.5]octan-6-yl)benzamide] | about the same; also recorded: minimal diminution in BrdU incorporation | little to no effect; also recorded: comparable cell counts | behaved as vehicle control treated cells | no cell cycle arrest | no | no induction of apoptosis |
| CC(C)(CO)Nc1ccc(C(=O)Nc2cccc(S(=O)(=O)C3CCCC3)c2)c(N2CCC3(CC2)CC3)n1 [Compound C11, N-(3-(cyclopentylsulfonyl)phenyl)-6-((1-hydroxy-2-methylpropan-2-yl)amino)-2-(6-azaspiro[2.5]octan-6-yl)nicotinamide] | about the same; also recorded: minimal diminution in BrdU incorporation | little to no effect; also recorded: comparable cell counts | behaved as vehicle control treated cells | no cell cycle arrest | no | no induction of apoptosis |
